Six compounds from patent publication EP0552657A1, “Use of pure Boswellic acid” (AMMON, Hermann P.T., priority 1992, dated 1993) can be followed below.

Structures are written as SMILES.

The test addresses T1, 5-Lipoxygenase (Rattus norvegicus, UniProt P12527).
T1 sequence (P12527 1-673): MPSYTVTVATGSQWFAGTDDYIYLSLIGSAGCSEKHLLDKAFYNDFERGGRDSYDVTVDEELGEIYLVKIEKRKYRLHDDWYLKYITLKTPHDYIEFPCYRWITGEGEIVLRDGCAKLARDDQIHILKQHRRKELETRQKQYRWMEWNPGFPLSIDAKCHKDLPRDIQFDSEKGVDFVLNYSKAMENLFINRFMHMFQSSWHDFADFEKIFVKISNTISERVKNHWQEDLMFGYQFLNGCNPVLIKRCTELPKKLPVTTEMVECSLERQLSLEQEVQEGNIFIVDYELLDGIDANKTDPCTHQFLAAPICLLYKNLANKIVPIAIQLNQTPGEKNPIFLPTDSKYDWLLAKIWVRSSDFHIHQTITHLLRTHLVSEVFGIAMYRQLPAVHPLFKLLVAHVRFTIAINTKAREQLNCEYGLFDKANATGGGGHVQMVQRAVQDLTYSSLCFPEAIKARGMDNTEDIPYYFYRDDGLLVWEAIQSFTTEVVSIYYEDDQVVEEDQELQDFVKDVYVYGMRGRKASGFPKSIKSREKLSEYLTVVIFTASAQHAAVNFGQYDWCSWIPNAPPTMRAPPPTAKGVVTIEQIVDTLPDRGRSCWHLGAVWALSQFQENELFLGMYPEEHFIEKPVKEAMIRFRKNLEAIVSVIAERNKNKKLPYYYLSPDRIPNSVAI
The test is described as follows: 5-lipoxygenase inhibition by boswellic acids (stimulated neutrophil granulocytes from rat peritoneum). Type of test: cell-based, Ratte. The note with it: read-out: IC50-Werte für die 5-LO-Hemmung. From the text:
Mit Hilfe des Testes mit Calcium- und Ionophor-stimulierten neutrophilen Leukozyten der Ratte konnte nachgewiesen werden, daß Extrakte aus Boswellia serrata vorwiegend die Bildung von Leukotrienen blockieren, dagegen die Prostaglandinsynthese erst in wesentlich höheren Konzentrationen beeinflussen (vgl. zur Methodik: a) Messung der Leukotriene: Safayhi et al., Biochem. Pharmacology, 34:2691-2694, 1985; b) Messung der Prostaglandine: Kommerzielle Radio-Immunoassay-Kits der Firma Amersham für 6-Keto-PGF1α).
Anhand der beigefügten Zeichnungen wird die Erfindung näher erläutert. […] Methode: Safayhi et al., JPET accepted. • Fig. 4 die Elutionsprofile der durch Eisen/Ascorbat-Stimulation aus exogener Arachidonsäure im zellfreien System entstehenden oxidierten und hydroxylierten Produkte in Gegenwart steigender Konzentrationen von Acetyl-boswelliasäure (A) und Nordihydroguaiaretsäure (B). Methode: Safayhi et al., JPET accepted.
Regarding `CC(=O)O[C@@H]1CC[C@@]2(C)[C@@H](CC[C@]3(C)[C@@H]2CC=C2[C@@H]4CC(C)(C)CC[C@]4(C)CC[C@]23C)[C@@]1(C)C(=O)O` [Acetyl-α-boswelliasäure], the IC50 is 7 µM. Turning to `C[C@H]1[C@H](C)CC[C@]2(C)CC[C@]3(C)C(=CC(=O)[C@@H]4[C@@]5(C)CC[C@@H](O)[C@](C)(C(=O)O)[C@@H]5CC[C@]43C)[C@H]12` [11-Keto-ß-boswelliasäure], the half-inhibitory concentration (IC50) was 5 µM. The figure for `C[C@H]1[C@H](C)CC[C@]2(C)CC[C@]3(C)C(=CC[C@@H]4[C@@]5(C)CC[C@@H](O)[C@](C)(C(=O)O)[C@@H]5CC[C@]43C)[C@H]12` [ß-Boswelliasäure] is 5 µM; for `CC1(C)CC[C@]2(C)CC[C@]3(C)C(=CC[C@@H]4[C@@]5(C)CC[C@@H](O)[C@](C)(C(=O)O)[C@@H]5CC[C@]43C)[C@@H]2C1` [α-Boswelliasäure] it is 5 µM; for `CC(=O)O[C@@H]1CC[C@@]2(C)[C@@H](CC[C@]3(C)[C@@H]2CC=C2[C@@H]4[C@@H](C)[C@H](C)CC[C@]4(C)CC[C@]23C)[C@@]1(C)C(=O)O` [Acetyl-boswelliasäure] it is 7 µM. The figure for `CC(=O)O[C@@H]1CC[C@@]2(C)[C@@H](CC[C@]3(C)[C@@H]2C(=O)C=C2[C@@H]4[C@@H](C)[C@H](C)CC[C@]4(C)CC[C@]23C)[C@@]1(C)C(=O)O` [Acetyl-11-keto-ß-boswelliasäure] is 2 µM.

One may read the IC50 as the concentration that gives 50% inhibition.
